From patent US11584763B2, “Chromenopyridine derivatives as phosphatidylinositol phosphate kinase inhibitors” (HIBERCELL, INC., priority 2017, dated 2023)

Legend:
Format in all cases: biochemical
[1] = biological target: T1, PIP4K2B (Homo sapiens, UniProt P78356); test: Trans-FI P kinase assay PIP4K2B (PIP4KtypeIIB inhibition assay); settings: compounds listed under IC50 bin headings; 100 uM GTP; read-out: Trans-FI P kinase assays: PIP4K2B IC50
T1 construct: made in house; host or cells: E. coli
T1 sequence (P78356 1-416): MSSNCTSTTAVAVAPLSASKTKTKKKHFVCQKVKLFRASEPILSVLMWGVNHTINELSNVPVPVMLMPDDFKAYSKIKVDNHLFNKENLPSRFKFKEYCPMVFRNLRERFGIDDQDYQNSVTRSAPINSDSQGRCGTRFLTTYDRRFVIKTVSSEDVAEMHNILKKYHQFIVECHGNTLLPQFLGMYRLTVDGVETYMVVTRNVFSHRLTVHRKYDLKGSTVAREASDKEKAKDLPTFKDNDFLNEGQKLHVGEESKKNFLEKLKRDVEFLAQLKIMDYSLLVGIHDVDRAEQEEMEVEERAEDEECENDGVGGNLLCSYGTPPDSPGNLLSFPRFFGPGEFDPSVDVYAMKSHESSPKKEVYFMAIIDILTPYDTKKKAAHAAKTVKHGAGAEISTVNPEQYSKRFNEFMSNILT
In short: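 GST-tagged human PIP4K2B (5 nM, E. coli-expressed) preincubated 1 h at 27 C with compound (top 4.8 uM, 5% DMSO), then reacted 2 h with 100 uM GTP and 80 uM PI5P/DOPE vesicles in HEPES pH 7.3, MgCl2, Triton X-100. GDP detected by Transcreener FI fluorescence via calibration curve; IC50 from % activity vs log[inhibitor].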

[2] = biological target: T2, PIP4K 2A (Homo sapiens, UniProt P48426); test: Kinase Assay PIP4K2 A (PIP4KtypeIIA inhibition assay); parameters: made in house; host or cells: E. coli; settings: compounds listed under IC50 bin headings
T2 sequence (P48426 1-406): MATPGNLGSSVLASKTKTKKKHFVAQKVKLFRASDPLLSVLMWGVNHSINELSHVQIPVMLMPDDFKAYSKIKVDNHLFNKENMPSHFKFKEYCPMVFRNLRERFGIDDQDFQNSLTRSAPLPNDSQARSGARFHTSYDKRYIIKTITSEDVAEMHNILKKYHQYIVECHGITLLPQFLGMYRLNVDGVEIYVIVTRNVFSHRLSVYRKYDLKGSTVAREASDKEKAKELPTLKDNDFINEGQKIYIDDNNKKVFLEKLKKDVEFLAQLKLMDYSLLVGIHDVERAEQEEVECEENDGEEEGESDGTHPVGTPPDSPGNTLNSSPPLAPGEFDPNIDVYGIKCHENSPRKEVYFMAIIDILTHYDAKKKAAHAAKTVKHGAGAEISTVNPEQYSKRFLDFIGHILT
Excerpt: GST tagged PIP4KtypeIIA and B enzymes were overexpressed in E. Coli and purified to >80% homogeneity. Phosphatidyl inositol-5-phosphate (PI5P, Cat. #850152, Avanti Polar Lipids Inc.) was used as the lipid substrate and phosphatidyl ethanolamine (DOPE 18:1, Cat. #850725, Avanti Polar Lipids Inc.) was used as the carrier lipid for assays. Ultrapure ATP and GTP was purchased from Bellbrooke Labs. ADP Glo reagents were obtained from Promega. Transcreener FI reagent was obtained from Bellbrooke labs.
Enzyme preparation: GST-tagged PIP4KtypeIIA (5 uL, 1.43 mg/mL) was diluted (1:10) to 50 uL using HNE buffer. From the 1:10 diluted stock, a 6.4 uL aliquot was diluted further to 5 mL using HNE buffer to yield 5× enzyme stock (2.5 nM).
Lipid Preparation: In a 10 mL pyrex glass vial, 1 ug of PI5P and 1 ug of DOPE were suspended in 2.5 mL of HEPES buffer mix and 2.5 mL of H:E buffer. The contents were mixed and sonicated for 3 min to yield a translucent lipid stock.
Compound Preparation: Compounds were stored as 5 mM stocks in neat DMSO as room temperature in glass vials. 5 mM stocks were diluted to 2 mM and then serially diluted (3×) in neat DMSO in 96 well polypropylene plates. From the serially diluted stocks, 3 uL was delivered into 250 uL of 25% DMSO (in water) to generate 5× compound stocks. Typically, the highest compound conc. was 24 uM.
The assay volume was kept at 25 uL. To each well of the reaction plate, 10 uL of lipid stock (1:1 ratio PI5P:DOPE) was delivered. This was followed by the addition of 5 uL of compound in 25% DMSO. Then, to each well, 5 uL of 2.5 nM (5×) typeIIA enzyme was delivered. The contents were mixed well and incubated for 1 h at 27 C. After 1 h, reaction was initiated by adding 5 uL of 50 uM ATP and the contents were mixed well with a multi-channel pipetteman. The final concentration of the reagents are as follows: 50 mM HEPES, pH 7.3, 10 mM MgCl2, 20 mM NaCl, 0.01% v/v triton-X100, 5% DMSO, 10 uM ATP, 80 uM (2 ug) PI5P, 2 ug DOPE, and 0.5 nM PIP4KIIA. Typically, the highest conc. of compounds was 4.8 uM and the lowest conc. was 0.
After 1 hr, the reaction was quenched by adding 25 uL of ADP Glo reagent. The contents were incubated for 1 hr. Afterwards, 50 uL of kinase detection reagent was delivered. The contents were incubated for another hour. The luminescence was read using Molecular Devices Paradigm plate reader. […] The blanks were averaged and subtracted from all other wells. Using a calibration curve, RLU was converted to uM ADP (product). IC50 was calculated by plotting the residual activity (expressed as % No inhibitor control) vs. log [Inh. conc.]

[3] = biological target: T2, PIP4K 2A; test: ADP-glo kinase assay PIP4K 2A; parameters: 4 nM PIP4K2A (full length protein, SignalChem); purchased SignalChem; settings: compounds listed under IC50 bin headings
In short: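 Full-length PIP4K2A was pre-incubated 15 min at RT with compound in 20 mM MOPS pH 7.2, 25 mM MgCl2, 0.005% Tween 20. The enzyme mix held 4 nM kinase and 100 μM PI(5)P diC8, and ATP was added from a 60 μM solution. After 1 h at RT, ADP-Glo luminescence gave % inhibition versus DMSO, fitted to IC50 over 10 threefold dilutions.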

| SMILES | IC50 [1] [nM] | IC50 [2] [nM] | IC50 [3] [nM] |
| --- | --- | --- | --- |
| CC1Oc2cc(N3CCCC3=O)ccc2-c2cnc(Nc3cncc(N4CCOCC4=O)c3)cc21 (centres unmarked) [Example 95, 4-(5-((5-methyl-8-(2-oxopyrrolidin-1-yl)-5H-chromeno[4,3-c]pyridin-3-yl)amino)pyridin-3-yl)morpholin-3-one] | 100 to 1000 | 1 to 10 | 10 to 100 |
| COC(=O)N1CCOc2ncc(Nc3cc4c(cn3)-c3ccc(C(=O)N(C)C)cc3OC4C)cc21 (centres unmarked) [Example 69, methyl 7-((8-(dimethylcarbamoyl)-5-methyl-5H-chromeno[4,3-c]pyridin-3-yl)amino)-2,3-dihydro-1H-pyrido[2,3-b][1,4]oxazine-1-carboxylate] | 1 to 10 | ≤ 1 | ≤ 1 |
| CC1Oc2cc(N3CCCC3=O)ccc2-c2cnc(Nc3ccnnc3)cc21 (centres unmarked) [Example 127, 1-(5-methyl-3-(pyridazin-4-ylamino)-5H-chromeno[4,3-c]pyridin-8-yl)pyrrolidin-2-one] | > 1000 | 10 to 100 | 100 to 1000 |
| CC1Oc2cc(N3CCCC3=O)ccc2-c2cnc(Nc3cccnc3)cc21 (centres unmarked) [Example 38, 1-(5-methyl-3-(pyridin-3-ylamino)-5H-chromeno[4,3-c]pyridin-8-yl)pyrrolidin-2-one] | 100 to 1000 | 1 to 10 | 1 to 10 |
| CC1(C)Oc2cc(N3CCCC3=O)ccc2-c2cnc(Nc3cnc4c(c3)OCCO4)cc21 [Example 164, 1-(3-((2,3-dihydro-[1,4]dioxino[2,3-b]pyridin-7-yl)amino)-5,5-dimethyl-5H-chromeno[4,3-c]pyridin-8-yl)pyrrolidin-2-one] | 10 to 100 | ≤ 1 | 1 to 10 |
| CC1Oc2cc(N3CCCC3=O)ccc2-c2cnc(Nc3cnc4c(c3)N3[C@H](CO4)CN(C)S3(=O)=O)cc21 (stereo partly drawn) [Example 187, 1-(5-methyl-3-(((S)-2-methyl-1,1-dioxido-2,3,3a,4-tetrahydropyrido[2,3-b][1,2,5]thiadiazolo[2,3-d][1,4]oxazin-8-yl)amino)-5H-chromeno[4,3-c]pyridin-8-yl)pyrrolidin-2-one] | 100 to 1000 | 10 to 100 |  |
| Cn1cnnc1-c1ccc2c(c1)OC(C)(C)c1cc(Nc3cnc4c(c3)N3C(=O)CC[C@H]3CO4)ncc1-2 [Example 211, (S)-2-((5,5-dimethyl-8-(4-methyl-4H-1,2,4-triazol-3-yl)-5H-chromeno[4,3-c]pyridin-3-yl)amino)-6,6a,7,8-tetrahydro-9H-pyrido[2,3-b]pyrrolo[1,2-d][1,4]oxazin-9-one] | 1 to 10 | ≤ 1 |  |
| Cc1conc1-c1ccc2c(c1)OC(C)(C)c1cc(Nc3cnc4c(c3)N3C(=O)CC[C@H]3CO4)ncc1-2 [Example 209, (S)-2-((5,5-dimethyl-8-(4-methylisoxazol-3-yl)-5H-chromeno[4,3-c]pyridin-3-yl)amino)-6,6a,7,8-tetrahydro-9H-pyrido[2,3-b]pyrrolo[1,2-d][1,4]oxazin-9-one] | 1 to 10 | ≤ 1 |  |
| C[C@@H]1Oc2cc(N3CCCC3=O)ccc2-c2cnc(Nc3cnc4c(c3)N3C(=O)CC[C@H]3CO4)cc21 [Example 193, (S)-2-(((S)-5-methyl-8-(2-oxopyrrolidin-1-yl)-5H-chromeno[4,3-c]pyridin-3-yl)amino)-6,6a,7,8-tetrahydro-9H-pyrido[2,3-b]pyrrolo[1,2-d][1,4]oxazin-9-one] |  | ≤ 1 | ≤ 1 |
| Cn1cnnc1-c1ccc2c(c1)OC(C)(C)c1nc(Nc3cnc4c(c3)N3C(=O)CC[C@H]3CO4)ncc1-2 [Example 210, (S)-2-((5,5-dimethyl-8-(4-methyl-4H-1,2,4-triazol-3-yl)-5H-chromeno[3,4-d]pyrimidin-3-yl)amino)-6,6a,7,8-tetrahydro-9H-pyrido[2,3-b]pyrrolo[1,2-d][1,4]oxazin-9-one] |  | ≤ 1 |  |
| CC1Oc2cc(N3CCCC3=O)ccc2-c2cnc(Nc3cncc(C4(C#N)CC4)c3)cc21 (centres unmarked) [Example 39, 1-(5-((5-methyl-8-(2-oxopyrrolidin-1-yl)-5H-chromeno[4,3-c]pyridin-3-yl)amino)pyridin-3-yl)cyclopropane-1-carbonitrile] | 10 to 100 | ≤ 1 |  |
